# “And” between values parts separate entries of the source, which are not always exact repeats. Equal entries are not always repeated. Marks after values point to notes of the source that are not given here.
# What was measured:
# Chlorella sorokinian = experiment: Growth rate of algae with 2-hydroxy-5-oxoproline in growth medium; assay type: cell-based; settings: treated algae, CO2 sole carbon source; untreated approximately 60 h
# Procedure: The growth rate of algae, Chlorella sorokinian (obtained from the American Type Culture Collection), was increased when 2-hydroxy-5-oxoproline was added to the growth medium. The mass accumulation growth curve for this single-cell photosynthetic organism is described as a sigmoidal function. […] This reflects substantially accelerated growth for the treated algae cultures when compared with untreated cultures. The growth medium for algae growth is described in Biotechnology & Bioengineering Vol. IV by Daboll et al., pages 281-297 (1962). Carbon dioxide was provided as the sole carbon source and was allowed to sparge into the cultures of both treated and untreated cultures. The light source supplied approximately 980 ft candles. Media pH was initially adjusted to 8.0 using either NaOH or HCl, and subsequently maintained at pH 7.0 by controlling the introduction of CO2.
# Cotton-Pima = experiment: Single foliar treatment of cotton seedlings; assay type: in vivo; settings: 16 days old, harvested 9 day after a single treatment, untreated 1.27
# Procedure: (§1) TABLE 7 and TABLE 8 show the results when commercial vegetables such as cantaloupe, and tomatoes, and a crop such as cotton were tested for the effects of the metabolite on their growth rates. These plants received one foliar application of 2-hydroxy-5-oxoproline as young seedlings. These plants grew more rapidly as determined by either fresh weight or leaf length. The cantaloupe and cotton seedlings were harvested and their fresh weight was determined.
# (§2) *Plants were 16 days old and were harvested 9 day after the treated plants had received a single treatment.
# lettuce = experiment: Weekly foliar treatment of lettuce with 2-hydroxy-5-oxoproline; assay type: in vivo
# Procedure: (§3) Having generally described the invention, the following EXAMPLES provide additional details of the effects of the metabolite, 2-hydroxy-5-oxoproline and other prolines on plant properties. In the EXAMPLES, the concentration of 2-hydroxy-5-oxoproline in plant leaves was determined by extracting the 2-hydroxy-5-oxoproline into acidified water from a known weight of fresh leaf tissue. The sampled leaves were fully extended and photosynthetically active. The amount of 2-hydroxy-5-oxoproline was measured using a high-performance liquid chromatograph fitted with an optical detector (210 nm) and a column packed with a sulfonated polystyrene di-vinyl benzene polymer suitable for ion-exclusion chromatography of Kreb cycle intermediates. The metabolite was eluted with 0.01N H2SO4 in water. The chromatograph peak corresponding to 2-hydroxy-5-oxoproline was identified by the known column retention time of 2-hydroxy-5-oxoproline. A standard curve was prepared using chemically synthesized 2-hydroxy-5-oxoproline (structure confirmed using 13-C nuclear magnetic resonance) and varying the amount of this standard injected into the system. The area integrated under the peak was correlated with the known amount of standard injected into the chromatograph. The amount of 2-hydroxy-5-oxoproline in leaf tissue samples could then be quantitatively determined from the area under the appropriate peak.
# (§4) Also in the EXAMPLES, plants were grown at 73° F. with 16 h length days and 8 h length nights. Fluorescent lights were supplemented with incandescent bulbs to generate intensities of 1760, 980 or 360 microeinsteins per meter squared per second as indicated in the EXAMPLES. Plants were grown in a standard potting mixture of peat moss, vermiculite and perlite, and nutrients were supplied by watering daily with the commonly used Hoagland's plant nutrient solution which contains an array of known plant nutrients and is considered to be appropriate to meet the nutrient needs of plants as they normally receive them from soil.
# The fresh weight, dry weight, percent dry weight, 2-hydroxy-5-oxoproline concentration in the leaves, and the CO2 fixation rates are all increased in the treated plants. The greater dry weight percent increases the value of these plants and that of algae as fuel because the increase provides a greater amount of combustible material per gram of fresh weight (that is, a greater amount of carbon was fixed by the plant), and because an increase in dry weight percent reduces the water content in the fuel which is an energy cost when the fuel is combusted. It also increases the value of these plants as sources of biomass suitable for conversion to other products such as chemicals, liquid fuels, or hydrogen, to name a few examples. Treatments were applied weekly to the foliar parts of the plants using an air brush until approximately 20% drip. The aqueous treatment solution contained 2-hydroxy-5-oxoproline (10 mg/liter) in 0.07% sodium laurel sulfate, and 1.2% glycerol at a pH of 6.3. The plants were harvested at 63 days of age after 7 treatments; the harvest was made 7 days after the last treatment. These plants were provided Hoagland's plant nutrient solution to their roots and grown under light intensity of […] microeinsteins.
# At harvest (63 days of age) none of the 12 control plants had emerged flowering structures, whereas 6 of the 12 treated plants had well-developed flowering structures.
# thrip = experiment: Thrip infestation of alfalfa plants with elevated 2-hydroxy-5-oxoproline; assay type: in vivo; settings: of 80 plants, one week after initial exposure; controls 15 of 80
# Description: Thrip infestation of plants having increased 2-hydroxy-5-oxoproline concentration was compared with that of control plants having a normal level of 2-hydroxy-5-oxoproline in their leaves. Control (80 plants) and plants with elevated levels of 2-hydroxy-5-oxoproline (80 plants) were subjected to thrip infestation; these two sets of plants were randomly intermingled in the greenhouse to assure equal exposure to the pest. Of the set of control plants, 15 were infested with thrip while only 11 of the other set of plants were infested with thrip one week after initial exposure to the pests. The light intensity for growth was approximately 1760 microeinsteins per meter squared per second.
# oat plants [1] = experiment: Root treatment of oats; effects of increasing leaf/root GS ratio on growth and leaf 2-hydroxy-5-oxoproline; assay type: in vivo; settings: for Whole Plant Fresh Weight (FWT): oats, compound delivered to the roots, controls 14.95; for 2-Hydroxy-5-oxoproline in Leaf: treated oats, controls 4.9
# Procedure: as §3, §4
# (§5) TABLE 5 and FIG. 3 hereof show the results of increasing the ratio of leaf/root GS activity on plant growth and on the concentration of 2-hydroxy-5-oxoproline in the leaves of oat plants treated with a compound (tabtoxinine-β-lactam) that binds to glutamine synthetase and impairs the normal destruction of this enzyme, thereby causing the leaf GS activity to increase while the root GS activity decreases. (For methodology, see, e.g., T. Knight, D. Bush, and P. Langston-Unkefer, Plant Physiol. 88, 333 (1988)). The compound (Tabtoxinine-β-lactam) was delivered to the roots. […] The level of 2-hydroxy-5-oxoproline was also observed to increase in the leaves of these plants as a consequence of the increased leaf/root GS activity ratio.
# [2] = system: wildtype oats (commercial cultivar Lodi); experiment: Daily root treatment of oats; selection of responders by CO2 fixation rate and tillers; assay type: in vivo
# Procedure: Oats were treated with 2-hydroxy-5-oxoproline through their roots as described in EXAMPLE 1. Individual plants that responded to the increased level of 2-hydroxy-5-oxoproline were identified by measuring the rate of CO2 fixation using a CO2 fixation meter at the maximum light intensity for photosynthetic carbon dioxide fixation of 2000 microeinsteins per meter squared per second. The rates were measured in the leaves of treated plants on two successive days and the plants were allowed to mature and produce seed.
# [3] = system: alfalfa commercial cultivar Saranac; experiment: Daily root treatment of alfalfa: growth, nodulation and flowering; assay type: in vivo
# Procedure: as §4
# Growth and nodulation were improved by the treatment. The alfalfa commercial cultivar Saranac, was grown as described hereinabove using 1760 microeinsteins per meter squared per second as the light intensity, and watered daily with quarter-strength Hoagland's plant nutrient solution that had been modified to replace the nitrogen (nitrate) with chloride in the solution. Nodulating alfalfa seedlings were treated beginning at about 4 days of age, with the same quantity of 2-hydroxy-5-oxoproline as described in EXAMPLE 1 for plants receiving the 2-hydroxy-5-oxoproline through their roots.
# The time to flowering or emergence of seed structures of treated daily and untreated plants was tracked in alfalfa and oats.
# Cantaloupe-Imperial = experiment: Single foliar treatment of cantaloupe seedlings; assay type: in vivo; settings: 16 days old, harvested 9 day after a single treatment, untreated 0.85
# Procedure: as §1, §2
# glutamine synthetase = experiment: Glutamine synthetase activity in leaf and root of treated oats (transferase assay); assay type: in vivo; settings: for GS Activity, Leaf: leaf of treated oats, controls 10.5; for GS Activity, Root: root of treated oats, controls 7.8; for Leaf/Root GS Activity Ratio: treated oats, controls 1.35
# Procedure: Glutamine synthetase activity was measured using the transferase assay as described in “Glutamine Synthetase (E. coli)” by B. Shapiro and E. Stadtman, Meth. Enzym. 17A, 910 (1970). The GS activity is expressed in micromoles per gram of fresh weight of tissue per minute.
# as §5
# [4] = system: Switchgrass (commercial cultivar Alamo); experiment: Daily root treatment of switchgrass; assay type: in vivo
# Procedure: as §4
# Average fresh weight of the foliar part of the plants was 115% of that for the control plants.
# [5] = system: oat plants (commercial cultivar Lodi); experiment: Daily root treatment of oats with 2-hydroxy-5-oxoproline; assay type: in vivo
# Procedure: as §3
# Also in the EXAMPLES, plants were grown at 73° F. with 16 h length days and 8 h length nights. […]
# The treatment was commenced when the seedlings were 7 days old and continued for 56 days; the 2-hydroxy-5-oxoproline was supplied daily to their roots as 50 ml of between 0.5 to 50 μM solutions of 2-hydroxy-5-oxoproline in Hoagland's plant nutrient solution having a pH of 6.3. […] When the amount of dry weight was expressed as a function of fresh weight, the percent dry weight of the treated plants ranged from 8.1 to 8.4% when compared with 7.6% for untreated control plants. […]
# Tomato-Halley 3155 = experiment: Multiple foliar treatment of tomato; assay type: in vivo; settings: 24 days old, 5 weekly treatments, untreated 11.97
# Procedure: as §1
# ** Plants were 24 days old and treated plants had received 5 weekly treatments.
# oat plants [6] = experiment: Foliar treatment of oats with 5-oxoproline; assay type: in vivo; settings: oats harvested 17 days after single foliar treatment, 40.5 mg per milliliter, 1% dimethylsulfoxide, pH 6.3
# Procedure: A solution containing 40.5 mg per milliliter of 2-pyrrolidone-5-carboxylic acid and 1% dimethylsulfoxide in water at a pH of 6.3 was applied, but other solutions of this compound were also found to be effective. These plants were grown under lights of 980 microeinsteins per meter squared per second and the treatment was applied to their foliar parts.
# [7] = lettuce, harvest at 63 days, control 100%
# [8] = individual treated oat plants, non-responders
# [9] = alfalfa, daily root treatment (soil), controls 100
smiles,measurement,setting,value
O=C1CC[C@@](O)(C(=O)O)N1 [2-hydroxy-5-oxoproline],time to reach the mid-log phase of growth,Chlorella sorokinian,approximately 40 h
same,"Foliar Fresh Weight, Treated plants",Cotton-Pima,1.85* g
same,CO2 Fixation Rate,"lettuce; 34 day-old lettuce plants, control 6.6",9.0 micromoles CO2 fixed/m^2/sec
same,CO2 Fixation Rate,"lettuce; 57 day-old lettuce plants, control 6.9",9.6 micromoles CO2 fixed/m^2/sec
same,Whole Plant Fresh Weight (FWT),"lettuce; lettuce, 7 weekly foliar treatments 10 mg/liter, harvest at 63 days, control 55.3",65.2 g
same,Whole Plant Dry Weight (DW),"lettuce; lettuce, harvest at 63 days, control 4.00",6.35 g
same,"Whole Plant Dry Weight, percent of control",lettuce; [7],159%
same,"Whole Plant Fresh Weight, percent of control",lettuce; [7],118%
same,2-Hydroxy-5-oxoproline Concentration in Leaf,"lettuce; lettuce, weekly foliar treatment, control 6.25",13.37 micromoles/gFWT
same,"2-Hydroxy-5-oxoproline Concentration in Leaf, percent of control","lettuce; lettuce, control 100%",212%
same,number of plants with well-developed flowering structures,"lettuce; of the 12 treated lettuce plants at harvest (63 days of age), none of 12 controls",6
same,number of plants infested with thrip,thrip,11
same,Whole Plant Fresh Weight (FWT),oat plants [1],18.07 g
same,2-Hydroxy-5-oxoproline in Leaf,oat plants [1],7.04 micromoles/g FWT
same,Number of Tillers in Mature Plant,"[2]; average of non-responders, average of untreated plants 13.7",14.0
same,CO2 fixation Rate as Differential CO2 Concentration,"[2]; average of non-responders, average of untreated plants 18.2",18.2 ppm
same,Number of Tillers in Mature Plant,"[2]; average of responders, average of untreated plants 13.7",17.0
same,CO2 fixation Rate as Differential CO2 Concentration,"[2]; average of responders, average of untreated plants 18.2",25.3 ppm
same,CO2 fixation Rate as Differential CO2 Concentration,[2]; [8],19.9 ppm and 19.6 ppm and 17.2 ppm and 16.1 ppm
same,Number of Tillers in Mature Plant,[2]; [8],14 (2×) and 13 and 15
same,Number of Tillers in Mature Plant,"[2]; individual treated oat plants, responders",21 (2×) and 19 and 12 and 15 and 17 (3×) and 13 and 18
same,CO2 fixation Rate as Differential CO2 Concentration,"[2]; individual treated oat plants, responders, light 2000 microeinsteins",25.2 ppm and 24.5 ppm and 24.2 ppm (2×) and 23.6 ppm and 23.2 ppm and 28.9 ppm and 28.0 ppm and 25.9 ppm and 25.3 ppm
same,flowered sooner than untreated plants,[3]; alfalfa treated daily,2 to 5 days
same,Nodule number/plant (%),[3]; [9],214%
same,Nodule weight/plant (%),[3]; [9],165%
same,Whole plant Fresh weight (%),[3]; [9],145%
same,"Foliar Fresh Weight, Treated plants",Cantaloupe-Imperial,1.55* g
same,"GS Activity, Leaf",glutamine synthetase,Leaf: 16.9 micromoles/g FWT/min
same,"GS Activity, Root",glutamine synthetase,Root: 6.4 micromoles/g FWT/min
same,Leaf/Root GS Activity Ratio,glutamine synthetase,2.64
same,"Average fresh weight of the foliar part, percent of control plants","[4]; switchgrass, daily root treatment",115%
same,"dry weight per unit of fresh weight, foliar parts","[4]; treated switchgrass, untreated 14.9%",16.5%
same,"dry weight per unit of fresh weight, roots","[4]; treated switchgrass, untreated 16.7%",12.05%
same,emergence of 3rd and 4th leaves (FIG. 4),"[4]; treated versus control switchgrass, as a function of time",consistently emerged leaves sooner than did the control plants
same,seed structures displayed earlier than untreated control plants,[5]; oats treated daily,3 to 5 days
same,2-Hydroxy-5-oxoproline Concentration in Leaf,"[5]; oats, daily root treatment, control 4.9",7.0 micromoles/gFWT
same,Whole Plant Fresh Weight (FWT),"[5]; oats, roots treated daily for 56 days with 50 ml of 0.5 to 50 μM solution, control 14.95",18.06 g
same,"Foliar Fresh Weight, Treated plants",Tomato-Halley 3155,19.08** g
"O=C1CCC(C(=O)O)N1 (centres unmarked) [5-oxoproline, 2-pyrrolidone-5-carboxylic acid]","fresh foliar weight, percent of untreated control plants",oat plants [6],126%
"N[C@@H](CC[C@]1(O)CNC1=O)C(=O)O [Tabtoxinine-β-lactam, tabtoxinine-β-lactam, reference compound]",Whole Plant Fresh Weight (FWT),oat plants [1],24.6 g
same,2-Hydroxy-5-oxoproline in Leaf,oat plants [1],16.6 micromoles/g FWT
same,"GS Activity, Leaf",glutamine synthetase,Leaf: 25.9 micromoles/g FWT/min
same,"GS Activity, Root",glutamine synthetase,Root: 3.9 micromoles/g FWT/min
same,Leaf/Root GS Activity Ratio,glutamine synthetase,6.6

# From patent publication US6593275B1, “Use of prolines for improving growth and other properties of plants and algae” (The Regents of the University of California, priority 2000, dated 2003)
